# In patent US12391733B2, “Stapled intracellular-targeting antimicrobial peptides to treat infection” (priority 2016, dated 2025):
# Positions of bridges follow the written chain, without caps; N, C: chain ends. Non-standard residues stand in square brackets, D forms with d. Residues, ends and D or L forms follow the SMILES beside them. R8 = C=CCCCCCC[C@@](C)(N)C(=O)O; S5 = C=CCCC[C@](C)(N)C(=O)O
# Key:
# [1] = circular dichroism; conditions: 10 mM phosphate buffer; pH 7.4; ns °C; 100 uM
# [2] = tested on: E. coli; format: cell-based, Escherichia coli; conditions: for Antimicrobial Activity NIC (μg/ml) E. coli: Table 1, microbroth dilution, refined MHB, 20-24 hours at 37° C.
# Experimental: Antimicrobial Activity Assay The following microbroth dilution protocol was adapted to determine the MIC of each peptide. First, Mueller-Hinton broth (MHB) was passed through an anion exchange column to remove polyanionic species and generate refined MHB. This refined broth was then used in the standard microbroth dilution protocol devised by Hancock et al. for 96 well plates. […] Briefly, bacterial cells were grown overnight in refined MHB at 37° C. and then diluted and allowed to grow again for several hours. Serial dilutions of peptide stocks in water (10 μl) were prepared using clear round-bottom polypropylene 96-well plates. Then 90 μl of bacteria in refined MHB was added to give a final inoculum of 5×10^5 CFU/ml. The plates were then covered with porous tape to reduce evaporation, and incubated for 20-24 hours at 37° C.
# [3] = tested on: human red blood cells (RBCs); format: cell-based; conditions: for % Hemolysis at 50 μg/ml: red cells of human, 1 h
# Text: One of the key obstacles that have long impeded the use of AMPs in systemic infections such as sepsis is their tendency to lyse human cells, such as red blood cells (RBCs). Thus, it is critical to minimize hemolytic activity as much as possible to achieve a therapeutic window. […] Of note, in those circumstances where hydrocarbon staples increase hemolytic activity due to increasing hydrophobicity, the alkene moiety can be modified, e.g., by dihydroxylation, to install hydrophilic residues and potentially mitigate hemolysis.
# Hemolytic Activity Assay For the determination of hemolytic activity, the following protocol was applied: human blood samples were centrifuged to isolate red blood cells (RBCs), which were then washed and suspended in phosphate-buffered saline to yield a 1% (v/v) suspension. This suspension was then added to serial dilutions of peptide stocks in water in clear round-bottom polypropylene 96-well plates and the plates incubated for 1 hour at 37° C. After incubation, the plates were centrifuged and the supernatant isolated to determine the amount of hemoglobin released using a spectrophotometer (570 nm). The minimum hemolytic concentration (MHC) was determined by assessing the peptide concentration at which there was less than 1% hemoglobin release.
Compound,helicity [1] [%],Antimicrobial Activity NIC (μg/ml) E. coli [2] [µg/mL],antimicrobial activity (in words) ([2]; compared to unstapled buforin II (F10W) and buforin II),hemolytic activity (in words) [3],% Hemolysis at 50 μg/ml [3] [%]
CC(C)C[C@H](NC(=O)CNC(=O)[C@H](C)NC(=O)[C@H](CCCNC(=N)N)NC(=O)[C@H](CO)NC(=O)[C@H](CO)NC(=O)[C@H](CCCNC(=N)N)NC(=O)[C@@H](N)[C@@H](C)O)C(=O)N[C@@]1(C)CCCC=CCCC[C@@](C)(C(=O)N[C@@H](CCCNC(=N)N)C(=O)N[C@H](C(=O)N[C@@H](Cc2c[nH]cn2)C(=O)N[C@@H](CCCNC(=N)N)C(=O)N[C@@H](CC(C)C)C(=O)N[C@@H](CC(C)C)C(=O)N[C@@H](CCCNC(=N)N)C(=O)N[C@@H](CCCCN)C(N)=O)C(C)C)NC(=O)[C@H](C(C)C)NC(=O)[C@@H]2CCCN2C(=O)[C@H](Cc2c[nH]c3ccccc23)NC1=O [BFStap(i + 4)7] (H-TRSSRAGL[S5]WPV[S5]RVHRLLRK-NH2; staple 9-13; N-terminus and C-terminus assumed),6.9,6.3,greatest increase in antimicrobial activity,low hemolytic activity,3.4
CC(C)C[C@H](NC(=O)[C@H](CC(C)C)NC(=O)[C@H](CCCNC(=N)N)NC(=O)[C@H](Cc1c[nH]cn1)NC(=O)[C@@H](NC(=O)[C@H](CCCNC(=N)N)NC(=O)CNC(=O)[C@]1(C)CCCC=CCCC[C@](C)(NC(=O)CNC(=O)[C@H](C)NC(=O)[C@H](CCCNC(=N)N)NC(=O)[C@H](CO)NC(=O)[C@H](CO)NC(=O)[C@H](CCCNC(=N)N)NC(=O)[C@@H](N)[C@@H](C)O)C(=O)N[C@@H](CCC(N)=O)C(=O)N[C@@H](Cc2c[nH]c3ccccc23)C(=O)N2CCC[C@H]2C(=O)N1)C(C)C)C(=O)N[C@@H](CCCNC(=N)N)C(=O)N[C@@H](CCCCN)C(N)=O [BFStap(i + 4)8] (H-TRSSRAG[S5]QWP[S5]GRVHRLLRK-NH2; staple 8-12; N-terminus and C-terminus assumed),2.3,29.2,–,–,2.8
CC(C)C[C@@H]1NC(=O)CNC(=O)[C@H](C)NC(=O)[C@@](C)(NC(=O)[C@H](CO)NC(=O)[C@H](CO)NC(=O)[C@H](CCCNC(=N)N)NC(=O)[C@@H](N)[C@@H](C)O)CCCC=CCCC[C@@](C)(C(=O)N[C@@H](Cc2c[nH]c3ccccc23)C(=O)N2CCC[C@H]2C(=O)N[C@H](C(=O)NCC(=O)N[C@@H](CCCNC(=N)N)C(=O)N[C@H](C(=O)N[C@@H](Cc2c[nH]cn2)C(=O)N[C@@H](CCCNC(=N)N)C(=O)N[C@@H](CC(C)C)C(=O)N[C@@H](CC(C)C)C(=O)N[C@@H](CCCNC(=N)N)C(=O)N[C@@H](CCCCN)C(N)=O)C(C)C)C(C)C)NC1=O [BFStap(i + 4)9] (H-TRSS[S5]AGL[S5]WPVGRVHRLLRK-NH2; staple 5-9; N-terminus and C-terminus assumed),11.7,50.0,–,–,2.5
CC(C)C[C@H](NC(=O)[C@H](CC(C)C)NC(=O)[C@H](CCCNC(=N)N)NC(=O)[C@H](Cc1c[nH]cn1)NC(=O)[C@@H](NC(=O)[C@H](CCCNC(=N)N)NC(=O)CNC(=O)[C@@H](NC(=O)[C@@H]1CCCN1C(=O)[C@H](Cc1c[nH]c2ccccc12)NC(=O)[C@H](CCC(N)=O)NC(=O)[C@]1(C)CCCC=CCCC[C@](C)(NC(=O)[C@H](CO)NC(=O)[C@H](CCCNC(=N)N)NC(=O)[C@@H](N)[C@@H](C)O)C(=O)N[C@@H](CCCNC(=N)N)C(=O)N[C@@H](C)C(=O)NCC(=O)N1)C(C)C)C(C)C)C(=O)N[C@@H](CCCNC(=N)N)C(=O)N[C@@H](CCCCN)C(N)=O [BFStap(i + 4)10] (H-TRS[S5]RAG[S5]QWPVGRVHRLLRK-NH2; staple 4-8; N-terminus and C-terminus assumed),20.9,100,–,–,2.4
CC(C)C[C@H](NC(=O)CNC(=O)[C@]1(C)CCCC=CCCC[C@](C)(NC(=O)[C@@H](N)[C@@H](C)O)C(=O)N[C@@H](CO)C(=O)N[C@@H](CO)C(=O)N[C@@H](CCCNC(=N)N)C(=O)N1)C(=O)N[C@@H](CCC(N)=O)C(=O)N[C@@H](Cc1c[nH]c2ccccc12)C(=O)N1CCC[C@H]1C(=O)N[C@H](C(=O)NCC(=O)N[C@@H](CCCNC(=N)N)C(=O)N[C@H](C(=O)N[C@@H](Cc1c[nH]cn1)C(=O)N[C@@H](CCCNC(=N)N)C(=O)N[C@@H](CC(C)C)C(=O)N[C@@H](CC(C)C)C(=O)N[C@@H](CCCNC(=N)N)C(=O)N[C@@H](CCCCN)C(N)=O)C(C)C)C(C)C [BFStap(i + 4)12] (H-T[S5]SSR[S5]GLQWPVGRVHRLLRK-NH2; staple 2-6; N-terminus and C-terminus assumed),5.3,>100,–,–,2.4
CC(C)C[C@H](NC(=O)CNC(=O)[C@H](C)NC(=O)[C@]1(C)CCCC=CCCC[C@](C)(N)C(=O)N[C@@H](CCCNC(=N)N)C(=O)N[C@@H](CO)C(=O)N[C@@H](CO)C(=O)N1)C(=O)N[C@@H](CCC(N)=O)C(=O)N[C@@H](Cc1c[nH]c2ccccc12)C(=O)N1CCC[C@H]1C(=O)N[C@H](C(=O)NCC(=O)N[C@@H](CCCNC(=N)N)C(=O)N[C@H](C(=O)N[C@@H](Cc1c[nH]cn1)C(=O)N[C@@H](CCCNC(=N)N)C(=O)N[C@@H](CC(C)C)C(=O)N[C@@H](CC(C)C)C(=O)N[C@@H](CCCNC(=N)N)C(=O)N[C@@H](CCCCN)C(N)=O)C(C)C)C(C)C [BFStap(i + 4)13] (H-[S5]RSS[S5]AGLQWPVGRVHRLLRK-NH2; staple 1-5; N-terminus and C-terminus assumed),0,>100,–,–,2.4
CC(C)C[C@H](NC(=O)CNC(=O)[C@H](C)NC(=O)[C@H](CCCNC(=N)N)NC(=O)[C@H](CO)NC(=O)[C@H](CO)NC(=O)[C@H](CCCNC(=N)N)NC(=O)[C@@H](N)[C@@H](C)O)C(=O)N[C@@H](CCC(N)=O)C(=O)N[C@@H](Cc1c[nH]c2ccccc12)C(=O)N1CCC[C@H]1C(=O)N[C@H](C(=O)NCC(=O)N[C@]1(C)CCCCCCC=CCCC[C@@](C)(C(N)=O)NC(=O)[C@H](CCCNC(=N)N)NC(=O)[C@H](CC(C)C)NC(=O)[C@H](CC(C)C)NC(=O)[C@H](CCCNC(=N)N)NC(=O)[C@H](Cc2c[nH]cn2)NC(=O)[C@H](C(C)C)NC1=O)C(C)C [BFStap(i + 7)1] (H-TRSSRAGLQWPVG[R8]VHRLLR[S5]-NH2; staple 14-21; N-terminus and C-terminus assumed),16.9,10.4,–,–,16.6
CC(C)C[C@H](NC(=O)CNC(=O)[C@H](C)NC(=O)[C@H](CCCNC(=N)N)NC(=O)[C@H](CO)NC(=O)[C@H](CO)NC(=O)[C@H](CCCNC(=N)N)NC(=O)[C@@H](N)[C@@H](C)O)C(=O)N[C@@H](CCC(N)=O)C(=O)N[C@@H](Cc1c[nH]c2ccccc12)C(=O)N1CCC[C@H]1C(=O)N[C@H](C(=O)N[C@]1(C)CCCCCCC=CCCC[C@@](C)(C(=O)N[C@@H](CCCCN)C(N)=O)NC(=O)[C@H](CC(C)C)NC(=O)[C@H](CC(C)C)NC(=O)[C@H](CCCNC(=N)N)NC(=O)[C@H](Cc2c[nH]cn2)NC(=O)[C@H](C(C)C)NC(=O)[C@H](CCCNC(=N)N)NC1=O)C(C)C [BFStap(i + 7)2] (H-TRSSRAGLQWPV[R8]RVHRLL[S5]K-NH2; staple 13-20; N-terminus and C-terminus assumed),15.6,33.3,–,–,3.1
CC(C)C[C@H](NC(=O)CNC(=O)[C@H](C)NC(=O)[C@H](CCCNC(=N)N)NC(=O)[C@H](CO)NC(=O)[C@H](CO)NC(=O)[C@H](CCCNC(=N)N)NC(=O)[C@@H](N)[C@@H](C)O)C(=O)N[C@]1(C)CCCCCCC=CCCC[C@@](C)(C(=O)N[C@@H](CCCNC(=N)N)C(=O)N[C@@H](CC(C)C)C(=O)N[C@@H](CC(C)C)C(=O)N[C@@H](CCCNC(=N)N)C(=O)N[C@@H](CCCCN)C(N)=O)NC(=O)[C@H](C(C)C)NC(=O)[C@H](CCCNC(=N)N)NC(=O)CNC(=O)[C@H](C(C)C)NC(=O)[C@@H]2CCCN2C(=O)[C@H](Cc2c[nH]c3ccccc23)NC1=O [BFStap(i + 7)4] (H-TRSSRAGL[R8]WPVGRV[S5]RLLRK-NH2; staple 9-16; N-terminus and C-terminus assumed),2.4,3.1,–,–,57.0
